Source: PMC7436000, “The Spectrum of Design Solutions for Improving the Activity-Selectivity Product of Peptide Antibiotics against Multidrug-Resistant Bacteria and Prostate Cancer PC-3 Cells” (Molecules, 2020)
In brackets after ≈: the same amount, converted by molar mass. Peptide text beside a SMILES is read from it.

Columns and labels:
[1] = cited from earlier work
standard ATCC E. coli = settings: cited from earlier work
lymphoma cell line U937 = system: lymphoma cell line U937; design: method as in PMID 21403917; settings: read-out: IC50 against lymphoma cell line U937; cited from earlier work
standard ATCC S. aureus = settings: cited from earlier work
human erythrocytes [2] = settings: cited from earlier work
Excerpt: The cell-penetrating ability is inherent to some amphipathic peptides with a high percentage of cationic residues. More than five arginines are required to direct membrane penetration through the eukaryotic membrane. This condition is fulfilled by guananin 2, the PenArg analog of penetratin, and T2R1, but not by T2. Penetratin, with the sequence […], is a well-known cell-penetrating peptide, which is furthermore an antimicrobial and anticancer peptide. That peptide is, to some degree, toxic to HeLa and Jurkat cancer cell lines. The toxicity to HeLa ...

[3] = system: HeLa (human cervical carcinoma cells) and HL60 (human promyelocytic leukemia cells); settings: two selected cancer cell lines; read-out: IC50 against HeLa and HL60; cited from earlier work
Excerpt: (§1) In the ZYK1 example, the parent peptide already has selective antimicrobial and antitumor activity. […] It follows that the TI for the paren ...

[4] = system: Gram-negative and Gram-positive bacteria; settings: cited from earlier work
Excerpt: as §1

[5] = system: human neonate chondrocytes; settings: cited from earlier work
Excerpt: as §1

A. baum. clin. isolate = type: cell-based, Acinetobacter baumannii
Excerpt: (§2) The American Type Culture Collection (ATCC, Rockville, MD, USA) strains and Escherichia coli MG1655 were used as standard bacterial strains. Gram-negative ATCC strains consisted of Escherichia coli (ATCC 25922), Pseudomonas aeruginosa (ATCC 27853), Acinetobacter baumannii (ATCC 19606), and Klebsiella pneumoniae (ATCC 13883). The only Gram-positive standard strain chosen for testing was Staphylococcus aureus (ATCC 29213). Clinical isolates with confirmed multidrug-resistance phenotype were obtained from different wards of the University Hospital Center, Split, Croatia. We described their origin, antibiograms, and resistance phenotype previously. In the same paper, we described the procedure for antimicrobial susceptibility testing on planktonic cells, using the microdilution method in 96-well microtiter plates.
(§3) Briefly, cells were grown on agar plates and a single colony was sampled to generate a liquid culture (LC) grown overnight at 37 °C. The culture was sampled, resuspended in fresh medium, and allowed to grow at 37 °C, until reaching the mid-exponential phase. Lysogeny broth (LB) was used in the case of the E. coli MG1655 cells. Mueller Hinton (MH) medium was used for all other bacterial strains. Serial 2-fold dilutions of the peptide (64 μM to 0.0625 μM) were prepared from peptide stock solution in PBS, and added to a final load of 5 × 10^5 CFU/mL in 100 μL total volume of medium per well in a 96-well plate (Brand 781660). Bacterial cultures were incubated with peptides for 18 h to 24 h at 37 °C. The minimum inhibitory concentration (MIC) was defined as the lowest concentration of the peptide, at which no visible bacterial growth was observed. The MIC for each of the tested peptides was determined in at least three individual assays under the same laboratory conditions. […] At the end of the incubation period for MIC or MBC, the determination of the OD600 was analyzed.

[6] = system: PC-3 prostate cancer cell line; type: cell-based, human; settings: 24 h
Procedure: (§4) Prostate cancer cells were donated by the University of Split, School of Medicine. Cells were cultured in RMPI-1640 medium, supplemented with 10% FBS, 1% Penicillin-Streptomycin, and 1% L-Glutamine. Human dermal fibroblasts were purchased from Biopredic (France) and cultured in DMEM medium, supplemented with 10% FBS and 1% Penicillin-Streptomycin. All cell lines were maintained in a humidified incubator with 5% CO2 at 37 °C. Cells were detached using the trypsin-EDTA solution and sub-cultured (7000 cells/well) in a 96-well plate overnight. Peptide stock solutions were prepared in PBS, and cancer cells were treated with 2-fold serial dilutions for 24 h at 37 °C, with 5% CO2. The toxicity of 6 selected peptides was assessed by a standard MTT assay. Treated cells were incubated with MTT working solution (0.5 mg/mL Thiazolyl Blue Tetrazolium Bromide) for 4 h at 37 °C with 5% CO2. Precipitated formazan was dissolved in 200 µL DMSO and absorbance was measured at 595 nm with EnSight Multimode Plate Reader (PerkinElmer, Inc.)

S. aureus clin. isolate = type: cell-based, Staphylococcus aureus; settings: clin. isolate
Excerpt: as §2, §3

P. aerug. clin. isolate = type: cell-based, Pseudomonas aeruginosa
Excerpt: as §2, §3

E. coli clin. isolate = type: cell-based, Escherichia coli; settings: clin. isolate
Excerpt: as §2, §3

human erythrocytes [7] = assay: Hemolysis of human erythrocytes; type: cell-based; settings: 1 h
Procedure: Fresh blood was obtained from a healthy donor. Blood was stored in a tube containing EDTA at 4 °C and used within 24 h. Before use, 1 mL of blood was centrifuged (400× g, 10 min), and the supernatant was discarded. Moreover, 500 μL cold PBS with EDTA (1 mM) was added, mixed and centrifuged. The supernatant was discarded. Furthermore, 500 μL of cold PBS with EDTA (1 mM) was added, from which a dilution of 1% blood was made. Peptides were prepared in PBS at a 2 × concentration in 100 µL. […] The suspension was incubated at 37 °C for 1 h and centrifuged at 10,000× g for 5 min. […] After centrifugation, the supernatant was added to a 96-well microtiter plate (150–180 μL), and the absorbance was measured at 450 nm, using EnSight Multimode Plate Reader (PerkinElmer, Inc.). Each measurement was done in triplicate. […] We opted to also include the extrapolated HC50 in our results, to permit comparisons with older toxicity results. However, the HC20 measurements were used for ranking the peptides according to their selectivity and overall performance (Figure 1 and Figure 2 and Table 2).

K. pneum. clin. isolate = type: cell-based, Klebsiella pneumoniae
Excerpt: as §2, §3

[8] = system: Staphylococcus aureus (ATCC 29213); type: cell-based; settings: ATCC 29213
Excerpt: as §2, §3

[9] = system: Pseudomonas aeruginosa (ATCC 27853); type: cell-based; settings: ATCC 27853
Excerpt: as §2, §3

[10] = system: Escherichia coli (ATCC 25922); type: cell-based; settings: ATCC 25922
Excerpt: as §2, §3

[11] = system: Klebsiella pneumoniae (ATCC 13883); type: cell-based; settings: ATCC 13883
Excerpt: as §2, §3

Escherichia coli MG1655 = type: cell-based; settings: MG1655
Excerpt: as §2, §3

[12] = system: Acinetobacter baumannii (ATCC 19606); type: cell-based; settings: ATCC 19606
Excerpt: as §2, §3

[13] = system: human primary dermal fibroblasts; type: cell-based; settings: 24 h
Procedure: as §4

[14] = cited from earlier work; remark: listed apart in the source
Excerpt: The MAPA analog of the MAP cell-penetrating peptide is five times less hemolytic and has at least two times stronger antibacterial activity than MAP [73] (Table 2). Accordingly, by introduced substitutions, we increased the selectivity index by at least one order of magnitude, and converted a strongly hemolytic, predominantly cell-penetrating peptide with no antibacterial selectivity (SI = 1, [73]), into a potent peptide antibiotic. MAP is an important molecule for engineering new anticancer agents, but as far as we can tell, MAPA is the first known selective anticancer MAP an ...

human erythrocytes [15] = assay: Hemolysis of human erythrocytes; type: cell-based; settings: 24 h

GIGKFLKKAKKFGKAFVKILKK [pexiganan, well-known broad-spectrum peptide antibiotic]
HC50 hemolytic activity [1]: 45 µM | MIC, standard ATCC E. coli (standard ATCC E. coli): 6.5 µM | IC50 (lymphoma cell line U937): 4 µM | MIC, standard ATCC S. aureus (standard ATCC S. aureus): 6.5 µM

RQYMRQIEQALRYGYRISRR [guananin 2, arginine-rich designed peptide from the literature]
selectivity index (human erythrocytes [2]): about 24

GIIKKIIKKIIKKI-NH2 [already known artificial AMP template of ZYK1]
IC50 [3]: 15 to 25 µM | MIC values [4]: about 10 μM | IC50 [5]: > 40 µM

CC[C@H](C)[C@H](NC(=O)[C@H](CCCCN)NC(=O)[C@H](CC(C)C)NC(=O)[C@H](C)NC(=O)[C@H](CCCCN)NC(=O)[C@H](CC(C)C)NC(=O)[C@H](C)NC(=O)[C@@H](NC(=O)[C@H](CCCCN)NC(=O)[C@H](C)NC(=O)[C@@H](NC(=O)[C@@H](N)CCCCN)[C@@H](C)CC)C(C)C)C(=O)N[C@@H](C)C(=O)N[C@@H](CCCCN)C(=O)N[C@H](C(=O)N[C@@H](C)C(=O)N[C@@H](CC(C)C)C(=O)N[C@@H](CCCCN)C(=O)N[C@@H](C)C(=O)N[C@@H](CC(C)C)C(N)=O)C(C)C [PG2] (H-KIAKVALKALKIAKVALKAL-NH2)
MIC (A. baum. clin. isolate) (A. baum. clin. isolate): 1.5 to 3 µM | (TI/ IC50C) vs. MP1 [6]: 6.8 | IC50 [6]: 6 µM | TI (HC20/IC20C) [6]: 6 | TI (IC50F/IC50C) [6]: 1.7 | TI/ IC50C [6]: 0.28 | MIC (S. aureus clin. isolate) (S. aureus clin. isolate): 1.5 µM (≈ 3.13 µg/mL) | MIC (P. aerug. clin. isolate) (P. aerug. clin. isolate): 6 µM (≈ 12.5 µg/mL) | MIC (E. coli clin. isolate) (E. coli clin. isolate): 6 µM (≈ 12.5 µg/mL) | HC10 (human erythrocytes [7]; concentration causing 10% hemolysis, 0.5% RBC in PBS, 37 °C, absorbance 450 nm, 0.2% Triton = 100%, triplicate): 3 µM | HC20 (human erythrocytes [7]; concentration causing 20% hemolysis, 0.5% RBC in PBS, 37 °C, absorbance 450 nm, triplicate): 14 µM | HC50 (human erythrocytes [7]; concentration causing 50% hemolysis, 0.5% RBC in PBS, 37 °C, absorbance 450 nm, triplicate): 18 µM | MIC (K. pneum. clin. isolate) (K. pneum. clin. isolate): 12 µM (≈ 25.1 µg/mL) | MIC (S. aureus ATCC 29213) [8]: 0.75 µM (≈ 1.57 µg/mL) | MIC (P. aerug. ATCC 27853) [9]: 6 µM (≈ 12.5 µg/mL) | MIC (E. coli ATCC 25922) [10]: 1.5 µM (≈ 3.13 µg/mL) | MIC (K. pneum. ATCC 13883) [11]: 3 µM (≈ 6.27 µg/mL) | MIC (E. coli MG1655) (Escherichia coli MG1655): 16 µM (≈ 33.4 µg/mL) | MIC (A. baum. ATCC 19606) [12]: 1.5 µM (≈ 3.13 µg/mL) | IC50 [13]: 10 µM

KLALKLALKALKAALKLA [MAP, cell-penetrating peptide, template of mapegin]
antibacterial selectivity SI [14]: 1

CC[C@H](C)[C@H](NC(=O)CN)C(=O)NCC(=O)N[C@@H](CCCCN)C(=O)N[C@@H](Cc1ccccc1)C(=O)N[C@@H](CC(C)C)C(=O)N[C@@H](CCCCN)C(=O)N[C@@H](CCCCN)C(=O)N[C@@H](C)C(=O)N[C@@H](CCCCN)C(=O)N[C@@H](CCCCN)C(=O)N[C@@H](Cc1ccccc1)C(=O)NCC(=O)N[C@@H](CCCCN)C(=O)N[C@@H](C)C(=O)N[C@@H](Cc1ccccc1)C(=O)N[C@H](C(=O)N[C@@H](CC(C)C)C(=O)N[C@H](C(=O)N[C@@H](CC(C)C)C(=O)N[C@@H](CCCCN)C(=O)N[C@@H](CCCCN)C(N)=O)[C@@H](C)CC)C(C)C [PEXA] (H-GIGKFLKKAKKFGKAFVLILKK-NH2)
MIC (A. baum. clin. isolate) (A. baum. clin. isolate): 1 to 2 µM | (TI/ IC50C) vs. MP1 [6]: 18 | IC50 [6]: 4 µM | TI (HC20/IC20C) [6]: 6.7 | TI (IC50F/IC50C) [6]: 3 | TI/ IC50C [6]: 0.75 | MIC (S. aureus clin. isolate) (S. aureus clin. isolate): 2 µM (≈ 4.92 µg/mL) | MIC (P. aerug. clin. isolate) (P. aerug. clin. isolate): 16 µM (≈ 39.4 µg/mL) | MIC (E. coli clin. isolate) (E. coli clin. isolate): 4 µM (≈ 9.85 µg/mL) | HC50 * (extrapolated) (human erythrocytes [15]): 520 * µM | HC10 (human erythrocytes [7]): 1.6 µM | HC20 (human erythrocytes [7]): 7 µM | MIC (K. pneum. clin. isolate) (K. pneum. clin. isolate): 4 µM (≈ 9.85 µg/mL) | MIC (S. aureus ATCC 29213) [8]: 0.5 µM (≈ 1.23 µg/mL) | MIC (P. aerug. ATCC 27853) [9]: 4 µM (≈ 9.85 µg/mL) | MIC (E. coli ATCC 25922) [10]: 0.5 to 1 µM | MIC (K. pneum. ATCC 13883) [11]: 2 µM (≈ 4.92 µg/mL) | MIC (E. coli MG1655) (Escherichia coli MG1655): 4 µM (≈ 9.85 µg/mL) | MIC (A. baum. ATCC 19606) [12]: 1 to 2 µM | IC50 [13]: 12 µM
